From ChEMBL document CHEMBL1145176, “Somatostatin receptor 1 selective analogues: 2. N(alpha)-Methylated scan” (J Med Chem, 2005) come the findings set out here.

As a reminder, the IC50 is the concentration at which inhibition is half-maximal.

Positions of bridges follow the written chain, without caps; N, C: chain ends. Non-standard residues stand in square brackets, D forms with d. Residues, ends and D or L forms follow the SMILES beside them. NMePhe(4-CH2NHiPr) = CN[C@@H](Cc1ccc(CNC(C)C)cc1)C(=O)O; Phe(4-CH2NHiPr) = CC(C)NCc1ccc(C[C@H](N)C(=O)O)cc1; d2Nal = N[C@H](Cc1ccc2ccccc2c1)C(=O)O; NMeS = CN[C@@H](CO)C(=O)O

Assay [1] has as its target Somatostatin receptor type 1 (Homo sapiens, UniProt P30872). Kind of assay: Inhibition of [Leu8,D-Trp22,125I-Tyr25]SRIF-28 binding to human somatostatin receptor type 1.
The target of assay [2] is Somatostatin receptor type 3 (Homo sapiens, UniProt P32745). Description: Inhibition of [Leu8,D-Trp22,125I-Tyr25]SRIF-28 binding to human somatostatin receptor type 3.
Assay [3] addresses Somatostatin receptor type 4 (Homo sapiens, UniProt P31391). Description: Inhibition of [Leu8,D-Trp22,125I-Tyr25]SRIF-28 binding to human somatostatin receptor type 4.
The target of assay [4] is Somatostatin receptor type 2 (Homo sapiens, UniProt P30874). Description: Inhibition of [Leu8,D-Trp22,125I-Tyr25]SRIF-28 binding to human somatostatin receptor type 2.
Assay [5] has as its target Somatostatin receptor type 5 (Homo sapiens, UniProt P35346). Kind of assay: Inhibition of [Leu8,D-Trp22,125I-Tyr25]SRIF-28 binding to human somatostatin receptor type 5.

Chain of Somatostatin receptor type 4 (P31391 whole entry): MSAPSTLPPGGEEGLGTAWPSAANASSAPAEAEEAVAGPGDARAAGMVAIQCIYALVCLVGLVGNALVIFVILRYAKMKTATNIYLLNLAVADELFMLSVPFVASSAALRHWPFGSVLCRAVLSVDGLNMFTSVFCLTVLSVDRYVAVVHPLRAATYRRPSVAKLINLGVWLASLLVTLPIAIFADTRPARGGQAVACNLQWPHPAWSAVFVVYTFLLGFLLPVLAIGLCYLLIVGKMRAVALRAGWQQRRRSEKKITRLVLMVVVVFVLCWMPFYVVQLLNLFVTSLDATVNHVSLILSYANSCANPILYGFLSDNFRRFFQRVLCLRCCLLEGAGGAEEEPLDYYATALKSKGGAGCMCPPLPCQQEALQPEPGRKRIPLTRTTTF
Chain of Somatostatin receptor type 3 (P32745 whole entry): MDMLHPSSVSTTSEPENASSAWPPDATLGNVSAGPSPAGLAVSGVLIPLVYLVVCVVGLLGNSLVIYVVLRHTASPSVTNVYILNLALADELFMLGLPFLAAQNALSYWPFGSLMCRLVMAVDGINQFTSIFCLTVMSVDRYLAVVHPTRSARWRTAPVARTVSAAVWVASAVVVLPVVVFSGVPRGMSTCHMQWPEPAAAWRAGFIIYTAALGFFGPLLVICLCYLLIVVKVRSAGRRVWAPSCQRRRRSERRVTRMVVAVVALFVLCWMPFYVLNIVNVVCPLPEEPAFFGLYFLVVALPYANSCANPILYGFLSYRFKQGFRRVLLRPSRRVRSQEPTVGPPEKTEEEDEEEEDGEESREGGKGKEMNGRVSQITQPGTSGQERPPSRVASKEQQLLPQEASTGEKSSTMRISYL
Chain of Somatostatin receptor type 2 (P30874 whole entry): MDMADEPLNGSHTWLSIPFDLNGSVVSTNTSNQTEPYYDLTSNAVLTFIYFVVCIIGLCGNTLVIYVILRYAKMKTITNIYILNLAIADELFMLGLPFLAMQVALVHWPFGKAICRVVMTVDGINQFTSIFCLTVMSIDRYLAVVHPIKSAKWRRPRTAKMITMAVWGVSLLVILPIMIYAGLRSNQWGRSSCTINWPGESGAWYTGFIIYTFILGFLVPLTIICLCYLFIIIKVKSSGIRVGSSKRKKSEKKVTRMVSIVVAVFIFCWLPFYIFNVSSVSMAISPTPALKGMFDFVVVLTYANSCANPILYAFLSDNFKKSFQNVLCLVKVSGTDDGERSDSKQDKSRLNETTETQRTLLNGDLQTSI
Chain of Somatostatin receptor type 1 (P30872 whole entry): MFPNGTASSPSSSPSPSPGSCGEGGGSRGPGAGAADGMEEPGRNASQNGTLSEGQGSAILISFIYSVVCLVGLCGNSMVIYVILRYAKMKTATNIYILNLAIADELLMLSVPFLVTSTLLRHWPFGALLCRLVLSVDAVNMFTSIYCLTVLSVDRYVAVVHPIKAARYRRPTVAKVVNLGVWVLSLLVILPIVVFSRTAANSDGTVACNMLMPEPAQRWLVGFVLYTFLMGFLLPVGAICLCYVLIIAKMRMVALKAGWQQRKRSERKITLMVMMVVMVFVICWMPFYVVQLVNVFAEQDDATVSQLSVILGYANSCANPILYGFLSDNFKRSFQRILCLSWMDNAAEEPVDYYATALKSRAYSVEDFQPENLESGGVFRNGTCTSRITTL
Chain of Somatostatin receptor type 5 (P35346 whole entry): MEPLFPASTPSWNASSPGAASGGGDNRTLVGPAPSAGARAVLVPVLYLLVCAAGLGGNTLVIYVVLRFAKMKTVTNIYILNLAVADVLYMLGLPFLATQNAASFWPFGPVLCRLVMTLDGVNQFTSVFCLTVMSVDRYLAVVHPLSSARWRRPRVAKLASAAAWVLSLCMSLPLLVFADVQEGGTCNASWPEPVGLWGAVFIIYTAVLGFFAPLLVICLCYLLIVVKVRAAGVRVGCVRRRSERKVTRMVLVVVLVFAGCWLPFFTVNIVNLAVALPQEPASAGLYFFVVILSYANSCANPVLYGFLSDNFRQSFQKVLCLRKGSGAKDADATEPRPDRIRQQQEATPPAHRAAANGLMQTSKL

On to `CC(C)NCc1ccc(C[C@@H]2NC(=O)[C@@H](N(C)C(=O)c3ccc4ccccc4c3)NC(=O)[C@H](Cc3ccccc3)NC(=O)[C@H](Cc3ccccc3)NC(=O)[C@H](CCCCN)NC(=O)[C@@H](N)CSSC[C@@H](C(=O)O)NC(=O)[C@H](CO)NC(=O)[C@H]([C@@H](C)O)NC(=O)[C@H](Cc3ccc(O)cc3)NC(=O)[C@H]([C@@H](C)O)NC2=O)cc1`, for which the results for the IC50 in assay [1], in assay [2] and in assay [3] were > 1 µM, 0.9 µM and > 1 µM, respectively.
For `CC(C)NCc1ccc(C[C@@H]2NC(=O)[C@@H](Cc3ccc4ccccc4c3)NC(=O)[C@H](Cc3ccccc3)NC(=O)[C@H](Cc3ccccc3)NC(=O)[C@H](CCCCN)NC(=O)[C@@H](N)CSSC[C@@H](C(=O)N[C@@H](CCCCN)C(=O)O)N(C)C(=O)[C@H](CO)NC(=O)[C@H]([C@@H](C)O)NC(=O)[C@H](Cc3ccccc3)NC(=O)[C@H]([C@@H](C)O)NC2=O)cc1`, the IC50 was 0.255 µM in assay [1]; > 1 µM in assay [4]; > 1 µM in assay [2]; > 1 µM in assay [3]; > 1 µM in assay [5].
As to `CC(C)NCc1ccc(C[C@@H]2NC(=O)[C@@H](Cc3ccc4ccccc4c3)NC(=O)[C@H](Cc3ccccc3)NC(=O)[C@H](Cc3ccccc3)NC(=O)[C@H](CCCCN)NC(=O)[C@@H](N)CSSC[C@@H](C(=O)N[C@@H](CCCCN)C(=O)N[C@@H](CCCCN)C(=O)N[C@@H](CCCCN)C(=O)O)N(C)C(=O)[C@H](CO)NC(=O)[C@H]([C@@H](C)O)NC(=O)[C@H](Cc3ccccc3)NC(=O)[C@H]([C@@H](C)O)NC2=O)cc1`, the IC50 is 0.144 µM in assay [1]; > 1 µM in assay [4]; 0.62 µM in assay [2]; > 1 µM in assay [3]; > 1 µM in assay [5].
For the compound `CC(C)NCc1ccc(C[C@@H]2NC(=O)[C@@H](Cc3c[nH]c4ccccc34)NC(=O)[C@H](Cc3ccccc3)NC(=O)[C@H](Cc3ccccc3)NC(=O)[C@H](CCCCN)NC(=O)[C@@H](N)CSSC[C@@H](C(=O)N[C@@H](CCCCN)C(=O)N[C@@H](CCCCN)C(=O)O)NC(=O)[C@H](CO)N(C)C(=O)[C@H]([C@@H](C)O)NC(=O)[C@H](Cc3ccccc3)NC(=O)[C@H]([C@@H](C)O)NC2=O)cc1`, the IC50 in assay [1] is 0.053 µM; in assay [4] it was > 1 µM; in assay [2] it was > 1 µM; in assay [3] it was > 1 µM; in assay [5], 0.682 µM.
`CC(C)NCc1ccc(C[C@@H]2NC(=O)[C@@H](Cc3c[nH]c4ccccc34)NC(=O)[C@H](Cc3ccccc3)NC(=O)[C@H](Cc3ccccc3)NC(=O)[C@H](CCCCN)NC(=O)[C@@H](N)CSSC[C@@H](C(=O)O)N(C)C(=O)[C@H](CO)NC(=O)[C@H]([C@@H](C)O)NC(=O)[C@H](Cc3ccccc3)NC(=O)[C@H]([C@@H](C)O)NC2=O)cc1`: the IC50 in assay [1] was 0.151 µM; in assay [4], > 1 µM; in assay [2], > 1 µM; in assay [3], > 1 µM; in assay [5], > 1 µM.
`C[C@H](N)C(=O)NCC(=O)N[C@H]1CSSC[C@@H](C(=O)O)NC(=O)[C@H](CO)NC(=O)[C@H]([C@@H](C)O)NC(=O)[C@H](Cc2ccccc2)NC(=O)[C@H]([C@@H](C)O)NC(=O)[C@H](CCCCN)NC(=O)[C@@H](Cc2c[nH]c3ccccc23)NC(=O)[C@H](Cc2ccccc2)NC(=O)[C@H](Cc2ccccc2)NC(=O)[C@H](CCCCN)NC1=O` (H-AGCKFF[dW]KTFTSC-OH; disulfide 3-13): in assay [1], the IC50 stood at 0.00098 µM.
Consider `CC(C)NCc1ccc(C[C@H]2C(=O)N[C@@H]([C@@H](C)O)C(=O)N[C@@H](Cc3ccccc3)C(=O)N[C@@H]([C@@H](C)O)C(=O)N[C@@H](CO)C(=O)N[C@H](C(=O)O)CSSC[C@H](N)C(=O)N[C@@H](CCCCN)C(=O)N[C@@H](Cc3ccccc3)C(=O)N[C@@H](Cc3ccccc3)C(=O)N[C@H](Cc3ccc4ccccc4c3)C(=O)N2C)cc1` (H-CKFF[d2Nal][NMePhe(4-CH2NHiPr)]TFTSC-OH; disulfide 1-11), for which the IC50 in assay [1] is 0.069 µM; in assay [5] it was > 1 µM.
On to `CC(C)NCc1ccc(C[C@H]2C(=O)N[C@@H]([C@@H](C)O)C(=O)N[C@@H](Cc3ccc(O)cc3)C(=O)N[C@@H]([C@@H](C)O)C(=O)N[C@@H](CO)C(=O)N[C@H](C(=O)O)CSSC[C@H](N)C(=O)N[C@@H](CCCCN)C(=O)N[C@@H](Cc3ccccc3)C(=O)N[C@@H](Cc3ccccc3)C(=O)N[C@H](Cc3ccc4ccccc4c3)C(=O)N2C)cc1` (H-CKFF[d2Nal][NMePhe(4-CH2NHiPr)]TYTSC-OH; disulfide 1-11), for which the IC50 was 0.025 µM in assay [1], > 1 µM in assay [4] and > 1 µM in assay [5].
As for `CC(C)NCc1ccc(C[C@@H]2NC(=O)[C@@H](Cc3ccc4ccccc4c3)NC(=O)[C@H](Cc3ccccc3)NC(=O)[C@H](Cc3ccccc3)NC(=O)[C@H](CCCCN)NC(=O)[C@@H](N)CSSC[C@@H](C(=O)O)NC(=O)[C@H](CO)NC(=O)[C@H]([C@@H](C)O)NC(=O)[C@H](Cc3ccccc3)NC(=O)[C@H]([C@@H](C)O)NC2=O)cc1` (H-CKFF[d2Nal][Phe(4-CH2NHiPr)]TFTSC-OH; disulfide 1-11), the IC50 in assay [1] is 0.248 µM; in assay [5], > 1 µM.
As for `CC(C)NCc1ccc(C[C@H]2C(=O)N[C@@H]([C@@H](C)O)C(=O)N[C@@H](Cc3ccc(O)cc3)C(=O)N[C@@H]([C@@H](C)O)C(=O)N[C@@H](CO)C(=O)N[C@H](C(=O)O)CSSC[C@H](N)C(=O)N[C@@H](CCCCN)C(=O)N[C@@H](Cc3ccccc3)C(=O)N[C@@H](Cc3ccccc3)C(=O)N[C@H](Cc3c[nH]c4ccccc34)C(=O)N2C)cc1` (H-CKFF[dW][NMePhe(4-CH2NHiPr)]TYTSC-OH; disulfide 1-11), the IC50 in assay [4] and in assay [5] was > 1 µM each time.
In turn, `CC(C)NCc1ccc(C[C@@H]2NC(=O)[C@@H](Cc3c[nH]c4ccccc34)NC(=O)[C@H](Cc3ccccc3)NC(=O)[C@H](Cc3ccccc3)NC(=O)[C@H](CCCCN)NC(=O)[C@@H](N)CSSC[C@@H](C(=O)O)NC(=O)[C@H](CO)NC(=O)[C@H]([C@@H](C)O)NC(=O)[C@H](Cc3ccccc3)NC(=O)[C@H]([C@@H](C)O)NC2=O)cc1` (H-CKFF[dW][Phe(4-CH2NHiPr)]TFTSC-OH; disulfide 1-11) gave an IC50 in assay [1] of 0.033 µM.
Consider `CC(C)NCc1ccc(C[C@@H]2NC(=O)[C@@H](Cc3c[nH]c4ccccc34)NC(=O)[C@H](Cc3ccccc3)NC(=O)[C@H](Cc3ccccc3)NC(=O)[C@H](CCCCN)NC(=O)[C@@H](N)CSSC[C@@H](C(=O)O)NC(=O)[C@H](CO)N(C)C(=O)[C@H]([C@@H](C)O)NC(=O)[C@H](Cc3ccccc3)NC(=O)[C@H]([C@@H](C)O)NC2=O)cc1` (H-CKFF[dW][Phe(4-CH2NHiPr)]TFT[NMeS]C-OH; disulfide 1-11), for which the values for the IC50 in assay [1], in assay [4] and in assay [2] were 0.023 µM, > 1 µM and > 1 µM, respectively.
Turning to `CC(C)NCc1ccc(C[C@H]2C(=O)N[C@@H]([C@@H](C)O)C(=O)N[C@@H](Cc3ccccc3)C(=O)N[C@@H]([C@@H](C)O)C(=O)N[C@@H](CO)C(=O)N[C@H](C(=O)O)CSSC[C@H](NC(=O)[C@@H](N)Cc3ccc(O)cc3)C(=O)N[C@@H](CCCCN)C(=O)N[C@@H](Cc3ccccc3)C(=O)N[C@@H](Cc3ccccc3)C(=O)N[C@H](Cc3c[nH]c4ccccc34)C(=O)N2C)cc1` (H-YCKFF[dW][NMePhe(4-CH2NHiPr)]TFTSC-OH; disulfide 2-12), the IC50 in assay [1] is 0.016 µM; in assay [4], > 1 µM; in assay [3], 0.245 µM.
